Test results from paper PMC4129416, “YLT192, a Novel, Orally Active Bioavailable Inhibitor of VEGFR2 Signaling with Potent Antiangiogenic Activity and Antitumor Efficacy in Preclinical Models” (Scientific Reports, 2014).

Tests used:
[1] = tested on: HUVEC; assay: Capillary-like tube formation assay; assay type: cell-based, human; conditions: designed concentrations; 6 hours; Matrigel
Method: To elucidate the possible mechanisms of angiogenesis inhibition, tube formation ability of ECs, which is a critical step in the process of angiogenesis, was assessed in HUVEC in vitro.
The anti-angiogenesis ability of YLT192 in vitro was evaluated using capillary tube formation assay as described previously. Briefly, 96-well plate was pre-incubated with Matrigel at 37°C for 45 minutes. Then HUVECs (2 × 10^4 cells) suspended in EGM2 medium were seeded onto the Matrigel. They were treated with various concentrations of YLT192. After 6 hours incubation at 37°C, tube formation was assessed with an OLYMPUS inverted digital camera in low power fields (50×). Vandetanib served as positive control. The assay was replicated 3 times.

[2] = tested on: HUVEC; assay: Transwell invasion assay; assay type: cell-based, human; conditions: various concentrations; 24 hours; concentration-dependent
From the text: (§1) Cell migration is essential for ECs in angiogenesis and for cancer cells in tumor growth and metastasis. […] Cell invasion is essential for EC in angiogenesis, so we performed transwell assays to evaluate the ability of HUVEC to pass through the Matrigel and membrane barriers of the transwell in the presence of various concentrations of YLT192 or vehicle.
Figure 2 Effects of YLT192 on HUVECs proliferation, migration, invasion and tube formation. […] Cells were wounded by the pipette and then treated with various concentrations of compounds for 24 hours. Migrated cells were quantified by manual counting (50×). […] The bottom chambers of the transwells were filled with 600 μL EGM2 containing various growth factors while the top chambers were seeded with 4 × 10^4 HUVECs in EBM2 and treated with different concentrations of compounds for 24 hours. Cells invaded through the membrane were stained and quantified (100×). […] HUVECs were seeded on Matrigel layer and treated with different concentrations of compounds. HUVECs tube formation was assessed 6 hours later (50×). One representative experiment of three is shown. […]
(§2) HUVECs were allowed to grow into full confluence in 24-well plates and then wounded by scratching with pipette tips and washed with PBS. […] Images were taken using a ZEISS digital microscope and invading cells were counted by manual counting. […]

[3] = tested on: HUVEC; assay: Wound healing migration assay; assay type: cell-based, human; conditions: various concentrations; 24 hours
From the text: as §1
Figure 2 Effects of YLT192 on HUVECs proliferation, migration, invasion and tube formation. […] Cells were wounded by the pipette and then treated with various concentrations of compounds for 24 hours. Migrated cells were quantified by manual counting (50×). […] The bottom chambers of the transwells were filled with 600 μL EGM2 containing various growth factors while the top chambers were seeded with 4 × 10^4 HUVECs in EBM2 and treated with different concentrations of compounds for 24 hours. Cells invaded through the membrane were stained and quantified (100×). […] HUVECs were seeded on Matrigel layer and treated with different concentrations of compounds. HUVECs tube formation was assessed 6 hours later (50×). One representative experiment of three is shown. For (A), (B) and (C), data represent the mean ± SEM of three different experiments. Each experiment was performed in duplicate.*P < 0.05, **P < 0.01. (D) YLT192 inhibited VEGF-induced phosphorylation of VEGFR2 and its downstream signal regulator p44/42 MAPK, STAT3 and AKT in HUVECs. One representative Western blot of three is presented. Each has the expression of β-actin as internal control. The full size blots were shown in the Supplemental Figure S5 online. (E) Cellular thermal shift assay showing VEGFR2 target engagement by YLT192 in intact HUVECs. One representative Western blot of two is presented. The full size blots were shown in the Supplemental Figure S6 online. […]
as §2

[4] = cited from earlier work; for toxicities after single doses: rat, in vivo; for maximal tolerance dose (MTD): rats, ref http://www.accessdata.fda.gov/drugsatfda

Structure (SMILES)	tube formation of HUVEC [1]	invasion of HUVECs in transwell assay [2]	HUVECs migration in wound healing assay [3]	toxicities after single doses [4]	maximal tolerance dose (MTD) [4]
COc1cc2c(Nc3ccc(Br)cc3F)ncnc2cc1OCC1CCN(C)CC1 [Vandetanib, reference compound]	inhibited HUVECs tube formation	inhibted HUVECs invasion	inhibited HUVECs migration		
CNC(=O)c1cc(Oc2ccc(NC(=O)Nc3ccc(Cl)c(C(F)(F)F)c3)cc2)ccn1 [sorafenib]				toxicities in the gastrointestinal tract and liver	500 mg/kg
CCN(CC)CCNC(=O)c1c(C)[nH]c(/C=C2\C(=O)Nc3ccc(F)cc32)c1C [sunitinib]				toxicities in the gastrointestinal tract and liver	500 mg/kg
